Measurements as given in patent US20230372364A1, “METHOD OF TREATING GABA MEDIATED DISORDERS” (Eliem Therapeutics (UK) Ltd, priority 2020, published 2023).

Key:
human subjects = experiment: Phase 1 study of safety, tolerability and pharmacokinetics in healthy volunteers (Example 1); format: in vivo; details: Phase 1 study participants
From the text: The study is a first in-human study of ATN-10155 is designed to assess the safety, tolerability, and pharmacokinetics of ATN-10155 following administration of two phases: a single ascending dose phase and multiple ascending dose phase. The study is a randomized, double-blind study with participants in each cohort receiving active drug or matching placebo. The study evaluates the safety, tolerability, and pharmacokinetics of ATN-10155 following the single and multiple dose phases in healthy volunteers. […]
Single Ascending Dose—the Single Ascending Dose portion comprises five or more cohorts with eight participants in each cohort, 6 actively receiving ATN-10155 and 2 receiving a placebo. […] Sentinel dosing is not employed once the maximum tolerated dose is determined or if an intermediate cohort is added that that is lower than the dose of the previous cohort. […]
Safety and tolerability—A physical and neurological exam is done as part of the eligibility evaluation at screening. […] Systolic blood pressure, diastolic blood pressure, pulse, and peripheral arterial oxygen saturation (pulse oximetry) is recorded prior to every PK blood sample (including pre-dose) in the single ascending dose portion. […] If a post-menopausal female, follicle stimulating hormone levels is measured at screening. […]

CYP2C8 = target: T1, CYP2C8 (Homo sapiens, UniProt P10632); experiment: Repaglinide drug-drug interaction in humans; format: in vivo; details: repaglinide exposure after 14 day repeat doses
T1 construct: from tissue; host or cells: human volunteers in vivo (endogenous, mainly hepatic, enzyme: own knowledge)
T1 sequence (P10632 1-490): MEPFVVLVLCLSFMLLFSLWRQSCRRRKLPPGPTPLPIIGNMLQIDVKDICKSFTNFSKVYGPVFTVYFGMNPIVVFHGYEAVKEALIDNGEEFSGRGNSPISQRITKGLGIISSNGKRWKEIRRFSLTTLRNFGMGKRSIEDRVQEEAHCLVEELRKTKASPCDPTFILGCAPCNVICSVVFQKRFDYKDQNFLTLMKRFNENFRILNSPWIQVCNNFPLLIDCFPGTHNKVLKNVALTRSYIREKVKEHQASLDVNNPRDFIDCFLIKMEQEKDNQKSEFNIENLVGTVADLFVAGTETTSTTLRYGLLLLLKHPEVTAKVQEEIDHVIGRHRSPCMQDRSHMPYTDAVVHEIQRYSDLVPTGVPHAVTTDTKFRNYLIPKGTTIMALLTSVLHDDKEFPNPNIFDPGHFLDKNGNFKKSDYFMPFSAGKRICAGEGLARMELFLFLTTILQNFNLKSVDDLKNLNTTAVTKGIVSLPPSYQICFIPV

[1] = system: cardiovascular or respiratory function; experiment: In vivo safety pharmacology studies
Method: (§1) The no-observed-adverse-effect-level doses were 7.5/mg/kg/day and 6 mg/kg/day in rats and dogs, respectively.

rats = experiment: Repeat-dose toxicity up to four weeks, rats; format: in vivo, rat
Method: as §1
(§2) Justification for Dose—Based on the nonclinical toxicology data, there is not an unreasonable risk of adverse effects. Using the FDA guidance “Estimating the Maximum Safe Starting Dose in Initial Clinical Trials for Therapeutics in Adult Healthy Volunteers” (July, 2005), the calculated human equivalent dose would be 1/2 mg/kg/day or 3/24 mg/kg/day, respectively, based on the 28-day rat no-observed-adverse-effect-level dose of 7.5 mg/kg/day or the 28-day dog no-observed-adverse-effect-level dose of 6 mg/kg/day, respectively. For both species the no-observed-adverse-effect-level dose was the highest dose tested. For a 60 kg participant, this would result in a maximum safe starting dose of (human equivalent dose/10) of 7.2 mg/day or 19/6 mg/day. The starting doses in this Phase 1 study are 5 mg, equivalent to […] for a 60 kg participant. […] These anticipated Cmax and AUC values are ˜80- and 50-fold lower, respectively, than that observed at the no-observed-adverse-effect-level dose in dogs.

[2] = Human equivalent dose and allometric scaling of anticipated human exposure; details: 60 kg participant
Method: as §2

[3] = Further pharmacokinetic analysis of Phase 1 human dosing exposure studies; format: in vivo
[4] = system: all 18 GABAA receptor channels; experiment: Activity at GABAA receptor channels; details: previously shown
From the text: The compound of Formula (I) is believed to have binding affinity at the GABA-gated Cl-channel, the kappa opioid receptor, the 5-HT2A receptor, and the androgen receptor. The compound of Formula (I) has previously shown activity at all 18 GABAA receptor channels and the kappa opioid receptor. The compound of Formula (I) had previously shown no activity at the 5-HT2A receptor. Activity at the androgen receptor is has not yet been well studied.

[5] = In vitro genetic toxicology studies; details: two in vitro studies

C[C@@]1(O)CC[C@@]2(C)[C@@H](CC[C@@H]3[C@@H]2CC[C@]2(C)[C@@H](C(=O)Cn4cc(C#N)cn4)CC[C@@H]32)C1 [CV-10155, 1-[2-[(3R,5S,8R,9S,10S,13S,14S,17S)-3-hydroxy-3,10,13-trimethyl-1,2,4,5,6,7,8,9,11,12,14,15,16,17-tetradecahydrocyclopenta[a]phenanthren-17-yl]-2-oxoethyl]pyrazole-4-carbonitrile]
serious adverse events (human subjects): minimal to no serious adverse events
severe adverse events (human subjects): minimal to no severe adverse events
DDI inhibitory effect at CYP2C8 level (CYP2C8): no or minimal DDI inhibitory effect
effect on cardiovascular or respiratory function [1]: does not affect
primary effects observed in repeat-dose toxicity (rats; mid and high dose levels, species not specified (rats and dogs program)): ataxia and prostration
no-observed-adverse-effect-level dose (rats; rats, 28-day repeat dose): 7.5 mg/kg/day
maximum safe starting dose (human equivalent dose/10) ([2]; from dog NOAEL): 19/6
maximum safe starting dose (human equivalent dose/10) ([2]; from rat NOAEL): 7.2 mg/day
elimination in urine [3]: < 1 % of the dose
accumulation ratio based on AUC ([3]; once daily administration): approximately 2
daily dose by which steady state was achieved ([3]; once daily administration, visual inspection of mean concentrations): eighth
Tmax ([3]; plasma, Phase 1, after oral administration): 3 to 4 h
half-life ([3]; plasma, oral, Phase 1, both after single and repeat administration, read-out: terminal half-life (converted)): ~40 h
activity at all 18 GABAA receptor channels [4]: activity
genetic toxicology findings [5]: no positive findings
